These are literature values, as cited in patent publication EP0228223A2, “Non-irritating suprofen solution” (Cilag AG, priority 1985, dated 1987).

“Also recorded” adds a separate entry of the source.

The conditions of data set [1]: preparation swallowed; appears only seconds after swallowing, disappears within minutes.

Take `CC(C(=O)O)c1ccc(C(=O)c2cccs2)cc1` (stereo not shown) [suprofen-sodium]: in data set [1], the “irritation in the throat” value is listed as “irritation effect occurs”.

Take `CC(C(=O)O)c1ccc(C(=O)c2cccs2)cc1` (stereo not shown) [Suprofen, p-(2-thenoyl)hydratropic acid]: where the note is “methanol, ethanol, chloroform, acetone, polyethylene glycol and 1.0 N sodium hydroxide”, the “solubility in organic solvents and base” value is “freely soluble”. In addition, under “water”, the solubility in water result is recorded as “poorly soluble; also recorded: very slightly soluble”. Further, the “irritation in the throat” value in data set [1] is listed as “very characteristic irritation”.
